pIC50: −log10 of the molar value.
Tests used:
[1] = Total antioxidant activity assay (DPPH free radical, cell-free); format: biochemical; conditions: Trolox 200 μM as positive control
Description: FIG. 2. Antioxidant activity of compound. The percentage of antioxidant activity of each extract was assessed by DPPH free radical assay and compared to the standard Trolox (92.08% of antioxidant activity).
Total antioxidant activity assay. […] DPPH (1,1-Diphenyl-2-picrylhydrazine) is a purple coloured stable free radical that is reduced to the yellow-coloured diphenylpicrylhydrazine. In a volume of 1 mL of methanol the test samples are mixed with DPPH 0.125 mM. Trolox (200 μM) is included as a positive control. After 30 min of incubation at room temperature in the dark the absorbance measurements are read at 517 nm using Thermo Scientific Genesys 10 uv scanning spectrophotometer. Lower absorbance of the reaction mixtures indicated higher free radical-scavenging activity. DPPH radical-scavenging activity is calculated according to the following formula: % Antioxidant activity=[(AC−AS)/AC]×100
Where Ac (control) is the absorbance of the control reaction (DPPH) and As (sample) is the absorbance of DPPH and sample.

THP-1 cells [2] = assay: Cytotoxic activity assay in THP-1 cells; format: cell-based; conditions: 48 h, at the tested concentrations
Description: FIG. 1. Cytotoxic activities of the compound in THP-1 cells. The cells were treated with the test substance at the indicated concentrations for 48 h.
Cytotoxic activity assays. THP-1 cell was seeded in 96-well plates at a density of 5×10^4 cells/well and NIH/3T3 cells were seeded in 96-well plates at a density of 5×10^3 cells/well both incubated overnight at 37° C. in a humidified atmosphere of 5% CO2. Subsequently, cells were treated with test compounds at the indicated concentrations and DMSO as control for […]. The test compounds were dissolved in DMSO (stock solution) and diluted with medium to a final DMSO concentration of 0.2%. MTT solution (50 μL, 7 mg/mL in PBS) was added to each well and plates were incubated for an additional 2 h. Next, the medium was removed and 100 μL of DMSO was added to each well to dissolve the formazan crystals that formed. The absorbance was measured at 590 nm using a spectrophotometric ELISA plate reader (SpectraMax® i3, Molecular Devices, CA, USA). Samples were considered nontoxic for the THP-1 and NIH/3T3 cell line when cell viability was ≥90%.
To analyse the cytotoxic activities of the test compound, THP-1 cells were incubated with DOXA-1 and DOXA-2 for 48 h and cytotoxicity was measured by fluorescence microscopy using an Incuyte microscope.

THP-1 cells [3] = assay: Cellular antioxidant activity assay (TBHP-induced ROS, DCFH-DA) in THP-1 cells; format: cell-based; conditions: Homo sapiens, THP-1 cell, 0.4 mM TBHP, read-out: antioxidant activity IC50 (TBHP-induced intracellular ROS)
Description: (§1) FIG. 3. Inhibition of TBHP-induced ROS production in THP-1 and NIH-3T3 cells. ROS production was evaluated by fluorescent probe DCFH-DA assay.
(§2) Cellular antioxidant activity assays. The intracellular accumulation of ROS is detected by fluorimetry using […] (DCFH-DA). The THP-1 cell (1×10^5 cells/well) are cultured in a 96-well black plate in DMEM supplemented with 10% FBS; culture medium is renewed when the cells reached 80% confluence. For inhibition, the cells are pre-incubated with the test substances for 30 min and treated with 0.4 mM Terc-butyl-hydroperoxide (TBHP). After 3 h the cells are incubated with 10 μM DCFH-DA in the culture medium at 37° C. for 30 min.
(§3) The acetate groups on DCFH-DA are removed by an intracellular esterase, trapping the probe inside the THP-1 cell. Then, the cells are washed with PBS at 37° C. and the production of ROS measured by changes in fluorescence due to the intracellular accumulation of DCF caused by the oxidation of DCFH. Intracellular ROS, as indicated by DCF fluorescence is detected using the Incucyte FLR software; the data are analyzed by the total green object integrated intensity (GCU×μm^2×well) of the imaging system IncuCyte HD (Essen BioScience).
(§4) In both cases the intracellular levels of ROS induced by TBHP are reduced (FIG. 3).

NIH/3T3 cells = assay: Cellular antioxidant activity assay (TBHP-induced ROS, DCFH-DA) in NIH/3T3 cells; format: cell-based; conditions: Mus musculus, NIH3T3, NIH/3T3 cell, read-out: antioxidant activity IC50 (TBHP-induced intracellular ROS)
Description: as §1, §2, §3, §4

TNF-α [4] = assay: TNF-α activity assay (ELISA) in THP-1 cells; format: cell-based; conditions: THP-1 cell; read-out: inhibition of TNF-α production IC50
Description: (§5) FIG. 4. Inhibition of TNF-α production in THP-1 and NIH/3T3 cells.
(§6) TNF-α activity assays. The protein expression levels of TNF-α were measured by using an enzyme-linked immunosorbent assay (ELISA) kit according to the manufacturer's instructions (Diaclone). Absorbance was read at 450 nm on a spectrophotometric ELISA plate reader (Anthos 2020, Version 2.0.5, Biochrom Ltd., UK). The percentage of TNF-α inhibition was calculated from the ratio between the observed TNF-α amount secreted by treated cells (nM) and the baseline secretion of TNF-α (nM). Dexamethasone (Sigma-Aldrich; 50-02-2), was used as positive control (0.01 μM). Results were normalized to the solvent control DMSO (0.1%).

TNF-α [5] = assay: TNF-α activity assay (ELISA) in NIH/3T3 cells; format: cell-based; conditions: NIH/3T3 cell; read-out: inhibition of TNF-α production IC50
Description: as §5, §6

NF-ηB [6] = assay: NF-ηB activity assay in THP-1 cells; format: cell-based; conditions: Homo sapiens; THP-1 cell; read-out: inhibition of NF-ηB production IC50
Description: (§7) FIG. 5. Inhibition of NF-ηB production in THP-1 and NIH/3T3 cells.
(§8) NF-ηB activity assays. The NIH/3T3-KBF-Luc cells has been stably transfected with the plasmid KBF-Luc plasmid, which contains three copies of NF-ηB binding site (from major histocompatibility complex promoter), fused to a minimal simian virus 40 promoter driving the luciferase gene. Cells (1×10^4 for NIH/3T3-KBF-Luc) are seeded the day before the assay on 96-well plate. Then the cells are treated with the test substances for 15 min and then stimulated with 30 ng/mL TNF-α. After 6 h, the cells are washed twice with PBS and lysed in 50 μL lysis buffer containing 25 mM Tris-phosphate (pH 7.8), 8 mM MgCl2, 1 mM DTT, 1% Triton X-100, and 7% glycerol during 15 min at RT in a horizontal shaker. Luciferase activity is measured using a GloMax 96 microplate luminometer (Promega) following the instructions of the luciferase assay kit (Promega, Madison, WI, USA). The RLU is calculated and the results are expressed as percentage of inhibition of NF-ηB activity induced by TNF-α (100% activation). The experiments for each concentration of the test items will be done in triplicate wells.

NF-ηB [7] = assay: NF-ηB activity assay (KBF-Luc luciferase reporter) in NIH/3T3 cells; format: cell-based; conditions: Mus musculus, NIH3T3; NIH/3T3 cell; read-out: inhibition of NF-ηB production IC50
Description: as §7, §8

STAT3 = STAT3 activity assay (HeLa-STAT3-Luc luciferase reporter, IFNγ-induced); format: cell-based; conditions: HeLa-STAT3-Luc cells, IFNγ 25 U/mL, 6 h; read-out: inhibition of IFNγ-induced STAT3 activation IC50
Description: FIG. 6. DOXA-1 and DOXA-2 inhibits IFNγ-induced STAT3 activation. HeLa-STAT3-Luc cells (15×10^3 cells/mL) were preincubated with increasing concentrations of the compound and treated with IFNγ (25 U/mL) for 6 h. Luciferase activity was measured in the cell lysates with the luciferase assay kit (Promega, USA) and using a GloMax 96 microplate luminometer
STAT3 activity assay. The HeLa-STAT3-luc cells have been stably transfected with the plasmid 4×M67 pTATA TK-Luc. Cells (15×10^3 cells/mL) are seeded 96-well plate the day before the assay. Then the cells are treated with the compound for 15 min and then stimulated with IFN-γ 25 IU/mL. After 6 h, the cells are washed twice with PBS and lysed in 50 μL lysis buffer containing 25 mM Tris-phosphate (pH 7.8), 8 mM MgCl2, 1 mM DTT, 1% Triton X-100, and 7% glycerol during 15 min at RT in a horizontal shaker. Luciferase activity was measured using GloMax 96 microplate luminometer (Promega) following the instructions of the luciferase assay kit (Promega, Madison, WI, USA). The RLU is calculated and the results are expressed as percentage of inhibition of STAT3 activity induced by IFN-γ (100% activation). The experiments for each concentration of the test items will be done in triplicate wells.

HIF-1α = HIF-1α activity assay (NIH/3T3-EPO-Luc luciferase reporter, DFX-induced); format: cell-based; conditions: 6 h, read-out: inhibition of DFX-induced activation of EPO-Luc (HIF-1α stabilization) IC50
Description: FIG. 7. Inhibitions the HIF-1α pathway. NIH/3T3-EPO-Luc cells (10×10^4 cells/mL) were preincubated with increasing concentrations of the compound or the hypoximimetic (Desferrioxamine) DFX for 6 h. Luciferase activity was measured in the cell lysates and results are represented as the percentage of inhibition considering 100% the value of DFX-induced HIF-1α pathway activation.
HIF-1α activity assay. The NIH/3T3-EPO-luc cells have been stably transfected with the plasmid Epo-Luc plasmid. The EPO-Hypoxia Response Element (HRE)-luciferase reporter plasmid contains three copies of the HRE consensus sequence from the promoter of the erythropoietin gene in the pGL3 vector. Cells (1×10^4 for NIH/3T3-EPO-luc) are seeded the day before the assay. The next day, the cells are stimulated either with the compound or Desferrioxamine (DFX) 150 μM as a positive control. After 6 hours of stimulation the cells are lysed in 25 mM Tris-phosphate pH 7.8, 8 mM MgCl2, 1 mM DTT, 1% Triton X-100, and 7% glycerol during 15 min at RT in a horizontal shaker. Luciferase activity is measured using a GloMax 96 microplate luminometer (Promega) following the instructions of the luciferase assay kit (Promega, Madison, WI, USA). The RLU is calculated and the results are expressed as percentage of inhibition induction/inhibition of EPO-luc activity. […]

tyrosinase = molecular target: T1, tyrosinase (Mus musculus, UniProt P11344); assay: Tyrosinase activity assay in B16-F10 melanoma cells; format: cell-based; conditions: 72 h treatment, read-out: inhibition of melanin synthesis (tyrosinase activity assay) IC50
T1 construct: To measure the tyrosinase activity of the cells, the B16-F10 cells treated for 3 days; endogenous in cells; host or cells: B16-F10 melanoma cells
T1 sequence (P11344 19-533): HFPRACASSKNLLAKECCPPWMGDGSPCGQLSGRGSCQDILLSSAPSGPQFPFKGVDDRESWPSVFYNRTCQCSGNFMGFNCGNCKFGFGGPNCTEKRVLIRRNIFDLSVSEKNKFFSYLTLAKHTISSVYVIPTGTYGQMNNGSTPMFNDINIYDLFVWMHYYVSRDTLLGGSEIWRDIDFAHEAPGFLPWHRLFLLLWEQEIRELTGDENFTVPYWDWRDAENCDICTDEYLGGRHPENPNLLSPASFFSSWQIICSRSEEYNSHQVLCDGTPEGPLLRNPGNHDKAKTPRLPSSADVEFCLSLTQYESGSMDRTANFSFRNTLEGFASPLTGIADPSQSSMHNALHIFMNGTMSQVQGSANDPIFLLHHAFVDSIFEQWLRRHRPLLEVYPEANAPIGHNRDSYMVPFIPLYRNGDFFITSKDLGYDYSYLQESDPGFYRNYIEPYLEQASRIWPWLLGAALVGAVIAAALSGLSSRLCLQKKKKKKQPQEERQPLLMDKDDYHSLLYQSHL
Description: FIG. 8. Effect of DOXA-1 and DOXA-2 on tyrosinase activity in B16-F10 melanoma cells. Tyrosinase activity assessment was performed as described in Methods. Briefly, cells were treated with the doses indicated of test substances or Kojic Acid as a positive control for 72 h. To determine the tyrosinase activity cells were lysed and the protein extracts were incubated with L-DOPA (a precursor of melanin) at 37° C. during 2 h and the activity was measured at 485 nm. Results are represented as percentage relative to untreated cells (control).
Tyrosinase activity assay. To measure the tyrosinase activity of the cells, the B16-F10 cells treated for 3 days with several doses of the compound is lysed by incubation at 4° C. for 30 min in lysis buffer (20 mM sodium phosphate, pH 6.8, 1% Triton X-100, 1 mM PMSF, 1 mM EDTA) containing protease inhibitors cocktail. The lysates are centrifuged at 15,000× g for 10 min to obtain the supernatant as the source of tyrosinase. The reaction mixture contained 20 mM phosphate buffer, pH 6.8, 1.25 mM L-DOPA (Sigma-Aldrich). After incubation at 37° C. for 2 h, dopachrome formation is monitored by measuring absorbance at a wavelength of 475 nm in a microplatereader (TECAN). Kojic acid 2 mM is used as a positive control.

Cc1c(C)c2c(c(C)c1O)CCC(C)(C(=O)O)O2 (stereo not drawn) [Trolox, reference compound]
percentage of antioxidant activity (DPPH), standard [1]: 92.08%

CCCCCC1=NN(C(=O)CCOC(=O)CCC(=O)O)OC(CCCCC)C1 (stereo not drawn) [DOXA-1, Doxadiazine-1]
cytotoxicity against THP-1 cell (THP-1 cells [2]): no cytotoxicity
pIC50 (THP-1 cells [3]): 8.09
pIC50 (NIH/3T3 cells): 5.48
pIC50 (TNF-α [4]): 7.49
pIC50 (TNF-α [5]): 7.76
pIC50 (NF-ηB [6]): 7.20
pIC50 (NF-ηB [7]): 7.17
pIC50 (STAT3): 8.51
pIC50 (HIF-1α): 7.91
pIC50 (tyrosinase): 7.74

CCCCCC1=NN(C(=O)CCOC(C)=O)OC(CCCCC)C1 (stereo not drawn) [DOXA-2, Doxadiazine-2]
cytotoxicity against THP-1 cell (THP-1 cells [2]): no cytotoxicity
pIC50 (THP-1 cells [3]): 8.46
pIC50 (NIH/3T3 cells): 8.65
pIC50 (TNF-α [4]): 8.46
pIC50 (TNF-α [5]): 8.80
pIC50 (NF-ηB [6]): 8.29
pIC50 (NF-ηB [7]): 8.62
pIC50 (STAT3): 9.86
pIC50 (HIF-1α): 8.29
pIC50 (tyrosinase): 8.06

Source: US12325692B2, “Uses of doxadiazines compounds” (HORITZONTS TECNOLOGICS HUNGARY KORLÁTOLT FELELOSSÉGU …, priority 2019, dated 2025)
